Experimental data from US20100330604A1, “QUANTIFICATION OF CHANGES IN THE DEGREES OF ORDER OF CELLULAR AND VIRAL MEMBRANES AND APPLICATIONS TO DIAGNOSIS, TREATMENT AND DRUG SCREENING” (priority 2007, published 2010).
Where two headings read alike, the source gives them in different places.

Assays:
platelets [1] = experiment: Di-4-[…] fluorescence and Rf (675/575 nm) by flow cytometry on isolated platelets treated in vitro; assay type: cell-based
platelets [2] = experiment: Spectral flow cytometry of di-4-[…] stained platelets stimulated by soluble agonists; assay type: cell-based
platelets [3] = experiment: Di-4-ANEPPDHQ Rf by flow cytometry on platelets of hyperlipidemic patients before and after atorvastatin; assay type: in vivo, human; conditions: after 6-week atorvastatin 40 mg
platelets [4] = conditions: mean+/-SD
platelets [5] = conditions: all three patient groups; FIG. 19 panel B
platelets [6] = experiment: Shear Induced Platelet activation (SIPA): high Rf platelet subpopulation; assay type: cell-based
cells = experiment: Kinetics of apoptosis after addition of staurosoprine (di-4-[…] staining, flow cytometry); assay type: cell-based
Text: Cells are detected, identified and segregated according to their size using forward scatter (FSC) and granularity (SSC). A total of 5000-10000 particles are typically analyzed. The excitation light is provided by a 488 nm laser, but could be achieved with lasers having wavelengths between 400 and 500 nm, among other possibilities. The emission fluorescence associated with liquid ordered domains is acquired between 575+/−25 nm, but the bandwidth could be narrower or wider, for example contained between 500 and 600 nm. The emission fluorescence associated with liquid disordered domains is acquired between 675+/−25 nm, but the bandwidth could be narrower or wider, contained for example between 650 and 750 nm.
Amplifications and gains associated with both fluorescences are adjusted on calibrated fluorescent beads or on a control cell population to obtain a ratio of fluorescence and to allow increases or decreases of the fluorescences and of the ratio. The ratio of fluorescence (Rf) is determined for each particle analysed by computing the ratio between the fluorescence intensity at 675 nm and the fluorescence intensity at 575 nm. By plotting FSC or SSC as a function of Rf for all particles on a logarithmic scale graph, the percentage of apoptotic cells can be determined as being the percentage of cells in the studied population having a Rf higher than a control population.

platelets [7] = experiment: Di-4-[…] Rf by confocal fluorescent microscopy on platelets; assay type: cell-based; conditions: 10 mM, 37° C., 30 min; four donors; p=0.045
Procedure: Referring to FIG. 3, fluorescence intensities were measured by confocal fluorescent microscopy and flow cytometry on control platelets, cholesterol depleted platelets (10 mM Methyl-β-cyclodextrin, 37° C., 30 min) and cholesterol enriched platelets (2 mM Cholesterol-MCD complex, 37° C., 30 min).
A META confocal fluorescence microscope system (Zeiss, Toronto) was used to measure the intensities of fluorescence between 534 to 599 nm and between 650 to 684 nm allowing calculating the fluorescence ratio (Rf) prepared according as described hereinabove. Consistently with previous published data on neutrophils (Jin L et al. Biophys J; 2006), the Rf was higher after depletion compared to control platelets (measures on at least 5 platelets of four different donors; p=0.045) (Panel A).

P-selectin = experiment: Expression of platelet activation marker P-selectin on washed platelets; assay type: cell-based; conditions: 10 mM, 30 minutes, room temperature; after 10 μM TRAP or 50 μM A23187
[8] = system: activated GpIIbIIIa receptors; experiment: Activation of the activated GpIIbIIIa receptors on washed platelets; assay type: cell-based; conditions: 10 mM, 30 minutes, room temperature; after 10 μM TRAP or 50 μM A23187
[9] = 10 mM, room temperature, during incubation, N=3

## CNc1ccc2oc(C[C@H]3O[C@@]4(CC[C@H]3C)O[C@H]([C@H](C)C(=O)c3ccc[nH]3)[C@H](C)C[C@H]4C)nc2c1C(=O)O [A23187]
Platelets [1]; agonist: 10 μM TRAP or 50 μM A23187, p<0.05
  Rf vs. non activated platelets incubated with TBS: significantly increased
Platelets [2]
  fluorescence intensities between 515 and 600 nm (more ordered phases) upon activation: decrease

## CC(C)c1c(C(=O)Nc2ccccc2)c(-c2ccccc2)c(-c2ccc(F)cc2)n1CC[C@@H](O)C[C@@H](O)CC(=O)O [atorvastatin]
Platelets [3]; 20 hyperlipidemic patients, compared value 9.2+/-0.1, p=0.01
  Rf (MLO in platelets): 8.8+/−0.1
Platelets [3]; compared value 12.8+/-0.5, p=0.09
  effects of the cholesterol depletion on the MLO (Rf): 11.7+/−0.2

## COC(=O)[C@H](c1ccccc1Cl)N1CCc2sccc2C1 [clopidogrel]
Platelets [4]; Group A: clopidogrel 300 mg the day before + 75 mg the morning of the procedure, before 8.80+/-0.2, p<0.001
  ratio of fluorescence (Rf) after administration of clopidogrel: 8.68+/−0.22
Platelets [4]; Group B: clopidogrel 600 mg the morning of (2 hours before) the procedure, before 8.90+/-0.24, p=0.006
  ratio of fluorescence (Rf) after administration of clopidogrel: 8.77+/−0.27
Platelets [4]; Group C: clopidogrel 600 mg the day before and 600 mg the morning of the procedure, before 8.69+/-0.29, p=0.88
  ratio of fluorescence (Rf) after administration of clopidogrel: 8.69+/−0.21
Platelets [5]
  platelet sub-population (Population 2), about 0.46% of platelets before treatment: inhibited

## C=C1[C@@H](C)[C@H]2[C@H](Cc3ccccc3)NC(=O)[C@]23[C@H](OC(C)=O)/C=C/[C@@](C)(O)C(=O)[C@@H](C)C/C=C/[C@H]3[C@@H]1O [cytochalasin D]
Platelets [6]
  generation of the high Rf platelet population during the shear treatment: abrogated

## CCCCC[C@@H](O)[C@H]1C(=O)O[C@H](C)[C@@H](O)/C=C/C=C/C=C/C=C/C=C(\C)[C@@H](O)C[C@H](O)C[C@H](O)C[C@H](O)C[C@H](O)C[C@H](O)C[C@@H]1O [filipin]
Platelets [1]; platelets, 30 minutes at 37° C., different concentrations, N=5
  Rf measured by flow cytometry: dose-dependency

## CN[C@@H]1C[C@H]2O[C@@](C)([C@@H]1OC)n1c3ccccc3c3c4c(c5c6ccccc6n2c5c31)C(=O)NC4 [staurosoprine]
cells; FIG. 17 panel G
  total proportion of intact cells after induction of apoptosis: decreases regularly
cells; FIG. 17 panel H
  time at which the concentration in microparticles is maximal: 24 h

## Methyl-β-cyclodextrin
Platelets [1]; 10 mM, 37° C., 30 min, 10 μM di-4-ANEPPDHQ
  fluorescence intensity (575 and 675 nm) versus control undepleted platelets: shifted to lower values
Platelets [1]; 10 mM, 30 minutes, room temperature, p<0.05 to p<0.001
  Rf vs. control platelets: increased
Platelets [1]; 10 mM, room temperature
  time of cholesterol depletion after which the fluorescence ratio measurement is substantially stable: 30 min
Platelets [1]; [9]
  fluorescence associated to the more ordered membrane (575 nm): decreased
  fluorescence emitted at 675 nm: remained stable
Platelets [1]; 10 mM, room temperature, N=3
  ratio of fluorescence (Rf) during the incubation: increased
Platelets [1]; cholesterol depletion 10 mM, 37° C., 30 min, N=5
  fluorescence ratio (Rf) calculated from flow cytometry data: increased
Platelets [7]
  Rf by confocal microscopy compared to control platelets: higher
P-selectin
  expression of platelet activation marker P-selectin: decreased
[8]
  activation of the activated GpIIbIIIa receptors: decreased

## thrombin
Platelets [2]; 0.5 U/mL, 30 minutes at 37 C
  fluorescence at wavelengths larger than 660 nm compared to controls: increased significantly
  fluorescence between 530 and 585 nm compared to controls: decreased significantly
Platelets [2]; Thrombin 0.5 U/ml, A23187 10 μM, Thrombin 0.5 U/ml/Convulxin 500 ng/ml, FIG. 15
  fluorescence intensities between 515 and 600 nm (more ordered phases) upon activation: decrease
